Test results taken from patent US20230303486A1, “CYCLOBUTYL-UREA DERIVATIVES” (Idorsia Pharmaceuticals Ltd, priority 2020, published 2023).

Assays:
[1] = tested on: audiogenic generalized convulsive seizures in DBA/2J mice; test: Audiogenic seizure-sensitive mouse model of generalized convulsive seizures; format: in vivo; settings: 10 mg/kg po, challenge 1h
Description: (§1) Compounds were formulated in a 10% polyethylene glycol 400 (PEG 400) / 90% aqueous solution of 0.5 % methylcellulose (MC 0.5%). Firstly drugs are dissolved in PEG 400 and then suspended in MC 0.5 % for oral gavage at Xmg/5 mL/kg (X see table).
• 1. Procedure: Following two days of acclimatisation, auditory seizures are induced in male juvenile DBA/2J mice (22-24 days old; Janvier Labs, France). Each mouse is placed individually in the exposure chamber, an hemispheric acrylic glass dome (diameter: 50 cm) within a sound-attenuated box. The soundattenuated box is equipped with two house lights and a camera system (Fire-I from Unibrain) in order to observe and record the behavioral seizure response. After 60 seconds of habituation, the stimulus, a mixed frequency tone of 15-20 kHz at 110 dB (SASLab Lite, Avisoft Bioacoustics), is played from a speaker that is placed on the top center of the dome. […] Seizures are classified as following: stage 0, normal behavior; stage 1, wild running; stage 2, generalized clonus; stage 3, tonic extension of the hind limbs. • 2. Compounds testing: Acute compound effects on audiogenic generalized convulsive seizures are evaluated in independent groups of 8-10 mice randomly assigned. Following oral administration of compound or vehicle, the maximum seizure stage during sound exposure is assessed. Compounds are given 1 hour before exposure to the stimulus. Each mouse is exposed to the auditory stimulus only once and euthanized afterwards by CO2 inhalation.

[2] = tested on: fully kindled Wistar rats; test: Amygdala-kindling rat model; format: in vivo; settings: challenge 1 h
Description: as §1
• 1. Procedure: Adult male Wistar rats (Harlan Laboratories, Netherlands, or Charles Rivers, Germany; body weight 300-350 g) were stereotaxically implanted with twisted bipolar plastic-coated stainless steel electrode (MS333-2-BIU 10 mm, Plastics One) into the right basolateral amygdala under isoflurane anesthesia. To place the electrode, trepanations were made in the skull and the electrode was lowered into the right basolateral amygdala (from bregma: anteriorposterior (AP): -2.5 mm, medio-lateral (ML): -3.5 mm, dorso-ventral (DV): -8.6 mm; α=10^0) and secured to the skull with screws and dental acrylate. After one week of recovery, they were handled daily and habituated over one week to the kindling setup. Kindling procedure: For a kindling session each rat was placed individually into a smooth acrylic plastic, round-bottomed bowl (0 36 cm, height 36 cm, BASi movement-responsive caging system) and its intracranial implanted electrode was connected to the stimulator (STG4008, Multichannel Systems GmbH) and the recording devices (PowerLab 8/35, ADInstruments Ltd) via a cable (335-340/3 (C), Plastics One). For the kindling procedure, each rat was exposed once daily to an electrical stimulation and the behavioral symptoms of the evoked seizure were observed and classified according to the modified Racine scale (stage 0, arrest, wet dog shakes, normal behaviour; stage 1, facial twitches: nose, lips, eyes; stage 2, chewing, head nodding; stage 3, forelimb clonus; stage 4, rearing, falling on forelimbs; stage 5, rearing, falling on side or back, rolling). […] The duration of electroencephalographic seizures (afterdischarge, AD) was recorded using LabChart7 Pro software (ADInstruments Ltd). Simultaneously, videos were recorded to evaluate seizure stage (SS). • 2. Compound testing: Acute drug effects were evaluated in groups of 6-8 fully kindled rats in a randomized cross-over design with 48h between drug and vehicle applications. Following oral administration of drug or vehicle, drug testing included determination of the afterdischarge threshold (the minimal stimulation intensity necessary to evoke an afterdischarge (electroencephalographically measured neuronal hyper-synchronous activity with an amplitude 2-times higher than baseline amplitude and a frequency of […]) of at least 3 sec duration) and monitoring electroencephalographic and behavioral correlates of the evoked seizure at ADT (afterdischarge threshold), including AD duration and SS, by a experimenter blind to treatment assignment.

SMILES | Seizure stage [% vs. vehicle] [1] [% vs. vehicle] | AD duration [% vs veh] ([2]; 30 mg/kg po) | Seizure stage [% vs veh] ([2]; 30 mg/kg po) | AD duration [% vs veh] ([2]; 10 mg/kg po) | Seizure stage [% vs veh] ([2]; 10 mg/kg po)
O=C(NCc1cccc(C(F)(F)F)c1)NC1CC(C(F)F)C1 (single isomer, unassigned) [Example 53, 1-(3-(Difluoromethyl)Cyclobutyl)-3-(3-(Trifluoromethyl)Benzyl)Urea] | -78 | -93 | -81 |  | 
O=C(NCc1cccc(C(F)(F)F)c1)NC12CC(C(F)F)(C1)C2 [Example 47, 1-(3-Difluoromethyl-Bicyclo[1.1.1]Pent-1-yl)-3-(3-Trifluoromethyl-Benzyl)-Urea] | -92 |  |  | -85 | -70
